Results published in patent US9125937B2, “Labelled analogues of halobenzamides as multimodal radiopharmaceuticals and their precursors” (INSTITUT NATIONAL DE LA SANTE ET DE LA RECHERCHE MEDICALE …, priority 2008, dated 2015).
Where “and” joins values, the source holds several entries; their conditions need not be identical. Equal values may be shown once. Where a name gives a salt, the structure may show the parent alone.

What was measured:
B16 F0 murine melanoma = experiment: Biodistribution study by planar scintigraphic imaging (gamma camera), tumour uptake quantification; assay type: in vivo, C57BL6 male mice; conditions: i.v.
Protocol: Tumour Implantation. For transplantation, cells grown in monolayer culture to confluence were trypsinized and washed with phosphate buffer saline (PBS). They were resuspended in PBS and each mouse received 0.1 mL subcutaneously (3×10^5 cells) on the left flank in order to allow a tumour growth on the body side. Ten days later, the tumours became palpable with a percentage of tumour take of 98-100%.
The in vivo biodistribution and kinetic profile of each radiolabelled (iodine-125) compound have been studied in C57BL6 male mice bearing the B16 F0 murine melanoma by repeated planar scintigraphic imaging which allows the tumour uptake follow-up in the same animal.
Gamma Camera. In vivo radionuclide imaging was performed using a γ IMAGER (Biospace Mesures, Paris, France) especially dedicated for small animal, a scintigraphic camera with a continuous 4 mm thick×120 mm diameter CsI(Na) crystal, a position-sensitive Hamamatsu R3292 photomultiplier and a 10 cm field of view.
Imaging Protocol. On day 14 after tumour implantation (tumour weight 0.25±0.10 g) each [^125I]-radioiodinated compound was administered intravenously via a tail vein (0.1 μmol, range 3.7 to 7 MBq/animal) in three mice for each compound. At different times after administration (1, 3, 6, 24, 72 hours, 5, 7, 10 and 15 days), mice were anesthetized with 0.2 mL, for a 20 g mouse, of a ketamine-xylazine mixture in saline (1-0.25 mL for 5 mL) by i. p. administration, and repeated planar scintigraphic whole body imaging (mouse laying in anterior position on the camera field) were performed by an acquisition time of 10 min. For this study, the camera was equipped with a 1.8/0.2/20 collimator (hole diameter/septum thickness/height in mm).
Tumoural Radioactivity Quantification Approach. The injected activity to each mouse was determined from scintigraphic imaging of the syringe before and after the injection using the γ-IMAGER.
Regions of interest (ROIs) were delineated over the whole body image: whole body uptake area (or the various fixing areas, eyes, thyroid and abdomen) and one for the tumour uptake area. In the various ROIs, the activity (cpm) was quantified using the Biospace measures γ VISION+software. These values were normalized to the injected dose. For the tumour, the activity was also normalized to the tumour weight. Firstly, the volume was calculated from the two dimensions caliper measurement (Bissery, M. C.; Guenard, D.; Gueritte-Voegelin, F.; Lavelle, F. Experimental antitumour activity of taxotere (RP 56976, NSC 628503) a taxol analogue. Cancer res. 1991, 51, 4845-4852). Secondly, the weight was determined from the volume value corrected by a factor determined from a large panel of experiments (Weight g=volume mm^3×0.6). The data were expressed as % ID/g of B 16F0 melanoma tumour.

melting point	SMILES	Radioactive concentration in tumour (tumoural uptake) (B16 F0 murine melanoma; 1 H post injection) [% ID/g]	Radioactive concentration in tumour (tumoural uptake) (B16 F0 murine melanoma; 3 H post injection) [% ID/g]	Radioactive concentration in tumour (tumoural uptake) (B16 F0 murine melanoma; 6 H post injection) [% ID/g]	Radioactive concentration in tumour (tumoural uptake) (B16 F0 murine melanoma; 24 H post injection) [% ID/g]	Radioactive concentration in tumour (tumoural uptake) (B16 F0 murine melanoma; 72 H post injection) [% ID/g]	Radioactive concentration in tumour (tumoural uptake) (B16 F0 murine melanoma; 120 H post injection) [% ID/g]	Radioactive concentration in tumour (tumoural uptake) (B16 F0 murine melanoma; 168 H post injection) [% ID/g]	Radioactive concentration in tumour (tumoural uptake) (B16 F0 murine melanoma; 240 H post injection) [% ID/g]	Radioactive concentration in tumour (tumoural uptake) (B16 F0 murine melanoma; 360 H (15 days) post injection) [% ID/g]
131 to 133 °C (dec.)	CCN(CCNC(=O)c1ccc2cncc(I)c2n1)CCOc1cccnc1F.Cl.Cl									
143 to 145 °C	CCN(CCNC(=O)c1cn2cc(I)ccc2n1)CCOc1cccnc1F.Cl.Cl									
49 to 51 °C and 50 °C	CCN(CCNC(=O)c1cnc2cc(I)ccc2n1)CCNc1cccc(Br)n1 [Compound 63, N-[2-[N-[2-[(6-bromopyridin-2-yl)amino]ethyl]-N-(ethyl)amino]ethyl]-6-iodoquinoxaline-2-carboxamide]									
	CCN(C/C=C/CF)CCNC(=O)c1cnc2cc([125I])ccc2n1.Cl.Cl [[^125I]57]	10.8 ± 2.3	12.3 ± 2.8	13.9 ± 1.3	15.0 ± 0.5	10.0 ± 0.9	5.6 ± 1.0	3.3 ± 0.6	1.9 ± 0.3	1.3 ± 0.6
	CCN(CCNC(=O)c1cccc2nc3cc([125I])ccc3nc12)CCOc1cccnc1F.Cl.Cl [[^125I]85]	11.4 ± 1.7	12.3 ± 1.7	13.8 ± 2.5	13.8 ± 2.3	5.8 ± 0.2	3.7 ± 0.6	2.0 ± 0.9	1.2 ± 0.5	0.7 ± 0.4
	CCN(CCF)CCNC(=O)c1cnc2cc([125I])ccc2n1 [[^125I]26, [^125I]N-[2-[[N-ethyl-N-(2-fluoroethyl)]amino]ethyl]-6-iodoquinoxaline-2-carboxamide dihydrochloride salt]	21.4 ± 4.9		25.0 ± 8.0	24.8 ± 6.5		8.4		1.6	0.6
	CCN(CCNC(=O)c1cnc2cc([125I])ccc2n1)Cc1ccnc(F)c1.Cl.Cl [[^125I]34]	10.3 ± 6.6	12.0 ± 4.8	15.4 ± 6.7	16.0 ± 7.4	10.0 ± 2.6	7.1 ± 1.8		1.9 ± 0.9	0.8 ± 0.5
	CCN(CC)CCNC(=O)c1cc(F)c2cc([125I])ccc2n1 [[^125I]106, [^125I]N-[2-(diethylamino)ethyl]-4-fluoro-6-iodoquinoline-2-carboxamide]	6.0 ± 1.3	8.0 ± 0.9	9.5 ± 1.8	8.4 ± 0.8	4.9 ± 1.2	3.0 ± 0.1	2.3 ± 0.6	1.5 ± 0.1	0.7 ± 0.1
	CCN(CCNC(=O)c1cnc2cc([125I])ccc2n1)CCOc1cccnc1F [[^125I]11, [^125I]N-[2-[N-ethyl-N-[2-(2-fluoropyridin-3-yloxy)ethyl]amino]ethyl]-6-iodoquinoxaline-2-carboxamide dihydrochloride salt]	12.7 ± 2.3		18.8 ± 1.6	18.2 ± 0.6	10.3 ± 1.7	5.2 ± 1.2	3.2 ± 0.4	1.7 ± 0.4	0.6 ± 0.3
	CCN(CCNC(=O)c1ccnc(F)c1)CCNC(=O)c1cnc2cc([125I])ccc2n1.Cl.Cl [[^125I]40]	9.6 ± 0.7	8.8 ± 1.6	12.1 ± 3.2	12.1 ± 4.6	9.6 ± 7.1	5.1 ± 3.3			
	CCN(CCNC(=O)c1ccc2cncc([125I])c2n1)CCOc1cccnc1F.Cl.Cl [[^125I]74]	5.6 ± 1.7	5.5 ± 2.4	5.3 ± 2.4	5.2 ± 2.0	3.3 ± 2.0	1.6 ± 0.7	1.1 ± 0.5	0.5 ± 0.3	0.4 ± 0.3
	CCN(CCNC(=O)c1cnc2cc([125I])ccc2n1)CCNc1cccc(F)n1 [[^125I]17, [^125I]N-[2-[N-ethyl-N-[2-[(6-fluoropyridin-2-yl)amino]ethyl]amino]ethyl]-6-iodoquinoxaline-2-carboxamide dihydrochloride salt]	13.1 ± 6.8	13.7 ± 6.1	12.5 ± 3.9	8.6 ± 0.9	5.7 ± 1.5	2.6 ± 0.4	1.5 ± 0.2	0.8 ± 0.1	0.4 ± 0.2
	CCN(CC)Cc1ccnc(F)c1CNC(=O)c1cnc2cc([125I])ccc2n1.Cl.Cl [[^125I]92]	5.6 ± 2.0	6.5 ± 3.2	6.7 ± 1.9	6.4 ± 1.8	4.1 ± 1.5	2.4 ± 0.7	1.5 ± 0.4	0.8 ± 0.3	0.7 ± 0.1
	CCN(CCNC(=O)c1cnc2cc([125I])ccc2n1)CCc1ccnc(F)c1.Cl.Cl [[^125I]47]	12.1 ± 4.1	13.3 ± 6.0	14.5 ± 6.6	11.2 ± 2.5	7.7 ± 0.9	5.2 ± 1.7	3.0 ± 1.0	1.6 ± 0.5	1.1 ± 0.3
	CCN(CCCc1ccnc(F)c1)CCNC(=O)c1cnc2cc([125I])ccc2n1.Cl.Cl [[^125I]53]	9.1 ± 1.8	9.3 ± 0.6	14.1 ± 3.9	16.3 ± 8.9	9.5 ± 5.9	5.1 ± 3.3	2.5 ± 2.1	1.4 ± 1.0	0.7 ± 0.5
